ChEMBL document CHEMBL4130451, “Design and Synthesis of N-Aryl Phenoxyethoxy Pyridinones as Highly Selective and CNS Penetrant mGlu3 NAMs” (ACS Med Chem Lett, 2017)
Calls of active or inactive are those of the source. The calls are words filed in the database; no cut-off is given here.

Columns and labels:
[1] = Brain to plasma partition coefficient, Kp of the compound in rat; format: ADME
[2] = Fraction unbound in rat brain homogenate at 5 uM after 6 hrs by equilibrium dialysis based LC/MS/MS analysis; format: ADME, tissue-based
[3] = target: Cytochrome P450 3A4 (Homo sapiens, UniProt P08684); experiment: Inhibition of CYP3A4 in human liver microsomes using midazolam as substrate after 15 mins in presence of NADPH by LC/MS/MS analysis; format: ADME
[4] = target: Metabotropic glutamate receptor 3 (Rattus norvegicus, UniProt P31422); experiment: (§1) Negative allosteric modulation of rat mGlu3 receptor expressed in TREX cells coexpressing Galpha15 assessed as inhibition of glutamate induced-calcium mobilization preincubated for 2.3 mins followed by glutamate addition measured for 2.6 mins by Fluo-4 AM dye based fluorescence assay; format: functional, cell-based
Sequence of Metabotropic glutamate receptor 3 (P31422 whole entry): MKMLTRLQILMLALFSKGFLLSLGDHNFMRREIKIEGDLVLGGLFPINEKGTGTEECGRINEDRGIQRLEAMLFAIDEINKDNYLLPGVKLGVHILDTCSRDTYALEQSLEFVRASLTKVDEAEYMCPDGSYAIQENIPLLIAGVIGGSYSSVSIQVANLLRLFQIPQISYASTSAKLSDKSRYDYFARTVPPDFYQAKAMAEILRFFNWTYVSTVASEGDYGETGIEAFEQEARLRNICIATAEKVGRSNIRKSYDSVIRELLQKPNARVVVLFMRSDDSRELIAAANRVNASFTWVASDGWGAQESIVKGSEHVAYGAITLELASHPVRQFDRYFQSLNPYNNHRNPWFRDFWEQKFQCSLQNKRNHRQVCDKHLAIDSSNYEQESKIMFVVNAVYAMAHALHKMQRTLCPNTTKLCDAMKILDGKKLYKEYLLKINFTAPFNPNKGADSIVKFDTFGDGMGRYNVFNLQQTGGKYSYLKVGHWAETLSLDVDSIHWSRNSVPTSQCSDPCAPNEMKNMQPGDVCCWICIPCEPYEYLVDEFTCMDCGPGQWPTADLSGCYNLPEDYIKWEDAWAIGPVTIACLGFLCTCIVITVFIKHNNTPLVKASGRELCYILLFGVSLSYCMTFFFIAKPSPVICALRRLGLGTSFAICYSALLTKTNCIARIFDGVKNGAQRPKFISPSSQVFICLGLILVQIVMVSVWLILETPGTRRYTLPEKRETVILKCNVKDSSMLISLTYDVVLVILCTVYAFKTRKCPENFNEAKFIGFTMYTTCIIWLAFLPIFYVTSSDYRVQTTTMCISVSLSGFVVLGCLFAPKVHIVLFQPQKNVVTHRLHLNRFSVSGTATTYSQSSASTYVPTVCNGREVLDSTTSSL

[5] = Fraction unbound in rat plasma at 5 uM after 4 hrs by equilibrium dialysis based LC/MS/MS analysis; format: ADME, cell-free
[6] = target: Cytochrome P450 1A2 (Homo sapiens, UniProt P05177); experiment: Inhibition of CYP1A2 in human liver microsomes using phenacetin as substrate after 15 mins in presence of NADPH by LC/MS/MS analysis; format: ADME
[7] = target: Metabotropic glutamate receptor 3 (Rattus norvegicus) (UniProt P31422); experiment: as §1, with “mobilization by measuring minimum glutamate response” for “mobilization”, “assay relative to glutamate” for “assay”; format: functional, cell-based
Sequence of Metabotropic glutamate receptor 3 (Rattus norvegicus) (P31422 23-879 limits assumed): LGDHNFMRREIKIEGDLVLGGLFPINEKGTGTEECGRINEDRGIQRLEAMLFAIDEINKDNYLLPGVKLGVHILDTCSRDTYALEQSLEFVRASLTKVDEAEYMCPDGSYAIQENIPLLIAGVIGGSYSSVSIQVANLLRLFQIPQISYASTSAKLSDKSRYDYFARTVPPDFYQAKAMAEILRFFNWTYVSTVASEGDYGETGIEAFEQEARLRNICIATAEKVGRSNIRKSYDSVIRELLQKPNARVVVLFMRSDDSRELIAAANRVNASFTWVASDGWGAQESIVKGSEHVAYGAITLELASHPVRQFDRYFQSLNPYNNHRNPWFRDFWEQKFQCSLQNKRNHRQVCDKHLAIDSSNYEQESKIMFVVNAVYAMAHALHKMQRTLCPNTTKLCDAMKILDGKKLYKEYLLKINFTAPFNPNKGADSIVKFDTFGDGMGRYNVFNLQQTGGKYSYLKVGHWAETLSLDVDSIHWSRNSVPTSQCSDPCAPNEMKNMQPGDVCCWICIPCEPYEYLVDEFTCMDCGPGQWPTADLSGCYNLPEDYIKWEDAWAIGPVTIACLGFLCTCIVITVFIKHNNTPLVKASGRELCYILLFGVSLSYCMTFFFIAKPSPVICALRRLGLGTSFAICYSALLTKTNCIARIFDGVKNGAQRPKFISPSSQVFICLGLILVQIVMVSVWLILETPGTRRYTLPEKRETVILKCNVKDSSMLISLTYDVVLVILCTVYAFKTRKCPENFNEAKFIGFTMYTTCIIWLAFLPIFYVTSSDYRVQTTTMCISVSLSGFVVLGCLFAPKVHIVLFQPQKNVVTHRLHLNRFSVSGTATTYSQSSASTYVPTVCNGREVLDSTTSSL

[8] = target: Cytochrome P450 2D6 (Homo sapiens, UniProt P10635); experiment: Inhibition of CYP2D6 in human liver microsomes using dextromethorphan as substrate after 15 mins in presence of NADPH by LC/MS/MS analysis; format: ADME
[9] = Unbound brain-to-plasma concentration ratio in rat; format: ADME; conditions: read-out: K(p,uu,brain)
[10] = Fraction unbound in human plasma at 5 uM after 4 hrs by equilibrium dialysis based LC/MS/MS analysis; format: ADME, cell-free
[11] = target: Cytochrome P450 2C9 (Homo sapiens, UniProt P11712); experiment: Inhibition of CYP2C9 in human liver microsomes using diclofenac as substrate after 15 mins in presence of NADPH by LC/MS/MS analysis; format: ADME
[12] = target: Metabotropic glutamate receptor 5 (Rattus norvegicus, UniProt P31424); experiment: (§2) Positive allosteric modulation of rat mGlu5 receptor expressed in HEK293A cells assessed as increase in glutamate induced-calcium mobilization preincubated for 2.3 mins followed by glutamate addition measured for 1.9 mins by Fluo-4 AM dye based fluorescence assay; format: functional, cell-based
Sequence of Metabotropic glutamate receptor 5 (P31424 whole entry): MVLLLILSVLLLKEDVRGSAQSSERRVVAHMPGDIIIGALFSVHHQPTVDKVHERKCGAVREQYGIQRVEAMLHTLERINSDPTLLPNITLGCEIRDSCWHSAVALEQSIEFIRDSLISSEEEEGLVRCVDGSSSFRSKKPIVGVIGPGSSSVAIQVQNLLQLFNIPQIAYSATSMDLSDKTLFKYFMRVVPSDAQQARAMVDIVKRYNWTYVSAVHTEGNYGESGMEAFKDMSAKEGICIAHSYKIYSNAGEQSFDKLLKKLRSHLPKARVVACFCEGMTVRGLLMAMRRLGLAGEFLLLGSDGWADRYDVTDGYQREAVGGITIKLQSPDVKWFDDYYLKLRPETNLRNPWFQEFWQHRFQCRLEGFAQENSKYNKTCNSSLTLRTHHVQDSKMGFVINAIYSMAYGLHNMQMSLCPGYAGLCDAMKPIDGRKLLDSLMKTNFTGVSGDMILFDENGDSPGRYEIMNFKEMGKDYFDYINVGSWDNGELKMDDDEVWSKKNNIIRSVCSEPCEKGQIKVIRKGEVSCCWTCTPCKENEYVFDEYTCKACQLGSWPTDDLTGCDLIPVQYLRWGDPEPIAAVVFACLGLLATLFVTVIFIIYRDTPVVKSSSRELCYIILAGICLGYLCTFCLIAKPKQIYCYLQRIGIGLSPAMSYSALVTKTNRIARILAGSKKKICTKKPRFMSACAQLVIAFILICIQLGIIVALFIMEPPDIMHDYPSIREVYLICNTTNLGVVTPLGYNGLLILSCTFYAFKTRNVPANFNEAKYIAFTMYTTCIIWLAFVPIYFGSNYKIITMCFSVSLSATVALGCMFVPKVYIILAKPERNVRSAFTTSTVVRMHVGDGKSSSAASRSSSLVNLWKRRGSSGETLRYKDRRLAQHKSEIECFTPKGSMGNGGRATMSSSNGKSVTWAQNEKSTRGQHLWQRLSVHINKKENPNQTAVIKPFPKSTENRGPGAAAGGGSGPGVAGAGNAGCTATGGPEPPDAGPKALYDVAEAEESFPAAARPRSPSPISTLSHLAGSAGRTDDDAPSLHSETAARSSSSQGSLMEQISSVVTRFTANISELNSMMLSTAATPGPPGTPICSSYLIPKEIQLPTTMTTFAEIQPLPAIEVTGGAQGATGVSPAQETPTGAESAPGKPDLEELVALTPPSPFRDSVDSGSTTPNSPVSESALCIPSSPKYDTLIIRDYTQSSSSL

[13] = organism: Rattus norvegicus; experiment: Selectivity ratio of EC50 for positive allosteric modulation of rat mGlu5 receptor expressed in HEK293A cells to IC50 for negative allosteric modulation of rat mGlu3 receptor expressed in TREX cells coexpressing Galpha15; format: cell-based
[14] = target: Metabotropic glutamate receptor 5 (Rattus norvegicus) (UniProt P31424); experiment: as §2, with “mobilization by measuring maximum glutamate response” for “mobilization”, “assay relative to glutamate” for “assay”; format: functional, cell-based
Sequence of Metabotropic glutamate receptor 5 (Rattus norvegicus) (P31424 21-1203 limits assumed): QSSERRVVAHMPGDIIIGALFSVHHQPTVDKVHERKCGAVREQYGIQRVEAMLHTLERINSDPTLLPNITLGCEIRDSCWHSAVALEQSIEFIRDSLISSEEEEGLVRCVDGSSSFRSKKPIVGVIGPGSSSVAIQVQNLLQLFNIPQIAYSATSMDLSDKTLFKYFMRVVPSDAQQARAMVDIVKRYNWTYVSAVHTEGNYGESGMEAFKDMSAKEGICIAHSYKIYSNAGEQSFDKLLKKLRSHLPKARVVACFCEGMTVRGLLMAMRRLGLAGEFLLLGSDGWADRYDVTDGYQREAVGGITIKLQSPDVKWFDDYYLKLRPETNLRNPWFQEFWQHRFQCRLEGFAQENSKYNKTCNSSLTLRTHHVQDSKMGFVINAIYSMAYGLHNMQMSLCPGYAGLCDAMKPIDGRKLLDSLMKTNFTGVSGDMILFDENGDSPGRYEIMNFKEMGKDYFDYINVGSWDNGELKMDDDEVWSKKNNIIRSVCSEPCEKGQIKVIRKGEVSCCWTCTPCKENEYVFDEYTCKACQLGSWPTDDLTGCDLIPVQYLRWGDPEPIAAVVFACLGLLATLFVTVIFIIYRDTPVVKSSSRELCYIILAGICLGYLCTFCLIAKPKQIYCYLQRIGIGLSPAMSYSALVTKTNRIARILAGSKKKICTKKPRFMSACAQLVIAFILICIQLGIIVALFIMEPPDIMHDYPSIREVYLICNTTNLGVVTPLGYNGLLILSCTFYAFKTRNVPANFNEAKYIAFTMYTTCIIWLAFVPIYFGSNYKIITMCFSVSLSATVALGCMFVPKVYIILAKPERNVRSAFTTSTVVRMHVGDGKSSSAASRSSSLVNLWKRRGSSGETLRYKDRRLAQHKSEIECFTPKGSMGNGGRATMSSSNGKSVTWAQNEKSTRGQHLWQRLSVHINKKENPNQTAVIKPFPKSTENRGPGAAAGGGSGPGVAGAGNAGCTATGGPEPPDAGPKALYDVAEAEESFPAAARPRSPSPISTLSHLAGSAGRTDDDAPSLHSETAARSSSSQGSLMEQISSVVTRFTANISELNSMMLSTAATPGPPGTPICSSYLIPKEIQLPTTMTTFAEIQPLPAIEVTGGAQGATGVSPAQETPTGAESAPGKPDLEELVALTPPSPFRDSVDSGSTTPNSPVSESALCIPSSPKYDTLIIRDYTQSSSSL

[15] = target: Metabotropic glutamate receptor 2 (Rattus norvegicus, UniProt P31421); experiment: Negative allosteric modulation of rat mGlu2 receptor expressed in HEK293 cells coexpressing Galpha15 assessed as inhibition of glutamate induced-calcium mobilization preincubated for 2.3 mins followed by glutamate addition measured for 1.9 mins by Fluo-4 AM dye based fluorescence assay; format: functional, cell-based
Sequence of Metabotropic glutamate receptor 2 (P31421 whole entry, looked up): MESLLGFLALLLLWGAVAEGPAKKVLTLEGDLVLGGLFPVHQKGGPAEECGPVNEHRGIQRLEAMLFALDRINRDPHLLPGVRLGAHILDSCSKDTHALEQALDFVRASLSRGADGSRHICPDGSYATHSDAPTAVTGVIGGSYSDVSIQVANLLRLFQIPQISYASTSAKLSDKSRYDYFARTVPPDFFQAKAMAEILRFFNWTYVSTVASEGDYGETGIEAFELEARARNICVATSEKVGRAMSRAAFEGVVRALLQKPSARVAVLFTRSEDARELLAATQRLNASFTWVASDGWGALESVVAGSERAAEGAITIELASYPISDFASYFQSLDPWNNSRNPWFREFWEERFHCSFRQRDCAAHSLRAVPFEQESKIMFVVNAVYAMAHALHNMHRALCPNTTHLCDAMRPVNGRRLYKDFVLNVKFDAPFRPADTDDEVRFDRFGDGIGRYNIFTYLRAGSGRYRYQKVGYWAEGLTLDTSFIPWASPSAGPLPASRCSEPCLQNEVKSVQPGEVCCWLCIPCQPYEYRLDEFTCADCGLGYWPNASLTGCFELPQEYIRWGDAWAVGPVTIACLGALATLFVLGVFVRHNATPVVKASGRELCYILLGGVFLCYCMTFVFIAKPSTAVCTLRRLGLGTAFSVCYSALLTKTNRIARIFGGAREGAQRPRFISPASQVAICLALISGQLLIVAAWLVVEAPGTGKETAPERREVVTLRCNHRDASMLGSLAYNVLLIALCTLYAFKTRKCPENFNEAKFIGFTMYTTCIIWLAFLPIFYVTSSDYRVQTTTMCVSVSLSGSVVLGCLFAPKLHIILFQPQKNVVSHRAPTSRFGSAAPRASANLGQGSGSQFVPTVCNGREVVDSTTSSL

[16] = tested on: Mus musculus; experiment: Antidepressant activity in CD-1 mouse assessed as reduction in immobility time up to 30 mg/kg administered ip 15 mins prior to test measured for 6 mins by tail suspension test; format: functional, organism-based
[17] = Ratio of drug uptake in Harlan CD-1 mouse brain at 3 mg/kg, ip to IC50 for negative allosteric modulation of rat mGlu2 receptor expressed in HEK293 cells coexpressing Galpha15; format: ADME, organism-based; conditions: in vivo
[18] = Drug uptake in Harlan CD-1 mouse brain at 3 mg/kg, ip by LC/MS-MS analysis; format: ADME, organism-based; conditions: in vivo, read-out: Drug uptake
[19] = tested on: Mus musculus; experiment: Antidepressant activity in CD-1 mouse assessed as reduction in immobility time at 30 mg/kg administered ip 15 mins prior to test measured for 6 mins by tail suspension test; format: functional, organism-based

SMILES	IC50 [4]	Emin [7]	EC50 [12]	Emax [14]	further results
CC(COc1ccn(-c2ccc(F)cc2)c(=O)c1)Oc1ccccc1 (stereo not drawn)	1230 nM	3.57%	> 30000 nM		Kp [1]: 1.7; fraction unbound at 6 h, 5 µM [2]: 0.05; IC50 [3]: > 30 µM; fraction unbound at 4 h, 5 µM [5]: 0.04; IC50 [6]: > 30 µM; IC50 [8]: > 30 µM; Kp uu [9]: 1.3; fraction unbound at 4 h, 5 µM [10]: 0.1; IC50 [11]: > 30 µM
N#Cc1cccc(-n2ccc(OCCOc3ccccc3)cc2=O)c1	340 nM	3.63%		87%	Selectivity ratio [13]: 18
O=c1nc(OCCOc2ccccc2)ccn1-c1cccc(F)c1	> 10000 nM	15.5%		77%	
O=c1cc(OCCOc2ccccc2)ccn1-c1ccc(F)cc1	930 nM	2.69%	560 nM	97%	
O=c1cc(OCCOc2ccccc2)ccn1-c1ccc(F)c(F)c1	180 nM	3.53%	340 nM	91%	
O=c1cc(OCCOc2cccc(F)c2)ccn1-c1ccc(F)cc1	350 nM	3.56%	1500 nM	93%	
C[C@H](COc1ccn(-c2ccc(F)cc2)c(=O)c1)Oc1ccccc1	> 30000 nM				IC50 [15]: > 30 µM
O=c1nc(OCCOc2ccccc2)ccn1-c1ccc(F)cc1	290 nM	3.94%		97%	fraction unbound at 4 h, 5 µM [5]: 0.16; IC50 [15]: > 30 µM
Cn1ccc(COc2cnc(C(N)=O)cc2-c2ccc(F)cc2)n1					Activity [16]: inactive; Ratio [17]: 180; concentration [18]: 14 µM
O=c1cc(OCCOc2cc(Cl)ccn2)ccn1-c1ccc(F)cc1	1450 nM	3.77%		82%	
O=c1cc(OCCOc2ccccc2)ccn1-c1cccc(F)c1	390 nM	3.45%	1900 nM	88%	
O=c1nc(OCCOc2ccccc2)ccn1-c1ccc(F)c(F)c1	1020 nM	3.77%		83%	
N#Cc1cc(F)cc(-n2ccc(OCCOc3ccccc3)cc2=O)c1	270 nM	3.39%		27%	
CNC1(c2ccccc2Cl)CCCCC1=O (stereo not drawn)					Activity [19]: Active
O=c1cc(OCCOc2ncccc2Cl)ccn1-c1ccc(F)cc1	450 nM	3.62%		94%	
